Test results taken from paper PMC3395614, “Functional Evolution of Mammalian Odorant Receptors” (PLoS Genetics, 2012).

Key:
[1] = target: T1, OR2J2 (human) (Homo sapiens, UniProt O76002); assay: cell-based; set-up: species or system Hana3A; cAMP-mediated luciferase reporter dose-response of odorant receptor orthologs and paralogs
T1 construct: full-length ORF from genomic DNA, N-terminal Rho-tag, Hana3A cells with human RTP1S
T1 sequence (O76002 1-312): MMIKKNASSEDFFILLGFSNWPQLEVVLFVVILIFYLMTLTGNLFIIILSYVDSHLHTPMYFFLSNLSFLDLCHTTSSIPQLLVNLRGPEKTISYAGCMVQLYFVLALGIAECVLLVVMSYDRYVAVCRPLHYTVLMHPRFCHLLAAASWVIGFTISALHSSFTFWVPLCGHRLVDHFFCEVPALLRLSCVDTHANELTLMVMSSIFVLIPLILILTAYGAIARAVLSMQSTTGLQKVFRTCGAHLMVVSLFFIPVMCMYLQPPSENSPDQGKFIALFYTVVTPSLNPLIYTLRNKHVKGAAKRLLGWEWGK
Description: (§1) Figure 6 Dose-response curves of OR orthologs and paralogs to a given ligand. (A) OR5K1 orthologs and 5 K subfamily to eugenol methyl ether. (B) OR8D1 orthologs and 8D subfamily members to 4,5-dimethyl-3-hydroxy-2,5-dihydrofuran-2-one. […] X-axis is the concentration of a given odor in Log Molar. Y-axis is normalized response (n = 3, ± S.E.M.). Human (h), chimpanzee (c) and rhesus macaque (m), mouse receptors (m+number); para indicates a receptor that is a paralog to the human reference OR. Vector control is Rho-pCI. See Figure S11 for additional dose-response data from orthologs and subfamily members. Supplementary file pgen.1002821.s018.pdf: Table S5 Comparison of dose-response curves from orthologs and paralogs. LogEC50 (M), Span (dynamic-range) for each OR is given. […] F-ratio and p-values from extra sum-of-squares test. (PDF) Click here for additional data file.  Figure 2 Response of OR orthologs to 42 chemically diverse odors. (A) Tuning curves of human, chimp and macaque OR2W1 orthologs tested against 42 odors using a cAMP-mediated luciferase assay. Odorants are ordered along the x-axis according to the response elicited from the human OR2W1, with the best ligands closer to the center. Y-axis represents the luciferase response to an odor at 100 µM (n = 3, ± S.E.). Negative values on the y-axis indicate the odor elicited an inhibitory response on OR signaling. See Figure S6 for additional tuning curves. (B) Response of chimp and macaque OR2W1 orthologs (variant responses) plotted against the human OR2W1 response using the data from (A). X-axis and y-axis are response in luciferase assay at 100 µM (n = 3, ± S.E.). The black line represents the unit-slope line. Odor abbreviations in Table S3.

[2] = target: T2, h2J1 (Homo sapiens, UniProt Q9GZK6); assay: cell-based; set-up: species or system Hana3A; cAMP-mediated luciferase reporter dose-response of odorant receptor orthologs and paralogs
T2 construct: gene OR2J1
T2 sequence (Q9GZK6 whole entry): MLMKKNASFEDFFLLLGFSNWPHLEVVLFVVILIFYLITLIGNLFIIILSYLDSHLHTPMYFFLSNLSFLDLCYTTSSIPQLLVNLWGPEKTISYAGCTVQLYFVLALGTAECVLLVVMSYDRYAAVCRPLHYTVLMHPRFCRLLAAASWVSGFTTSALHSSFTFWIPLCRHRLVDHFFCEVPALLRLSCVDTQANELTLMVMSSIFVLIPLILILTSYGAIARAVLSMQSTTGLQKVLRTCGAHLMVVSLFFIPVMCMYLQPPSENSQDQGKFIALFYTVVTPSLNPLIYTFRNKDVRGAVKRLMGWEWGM
Description: as §1

[3] = target: T3, h2A25 (Homo sapiens, UniProt A4D2G3); assay: cell-based; set-up: species or system Hana3A; cAMP-mediated luciferase reporter dose-response of odorant receptor orthologs and paralogs
T3 construct: gene OR2A25
T3 sequence (A4D2G3 whole entry): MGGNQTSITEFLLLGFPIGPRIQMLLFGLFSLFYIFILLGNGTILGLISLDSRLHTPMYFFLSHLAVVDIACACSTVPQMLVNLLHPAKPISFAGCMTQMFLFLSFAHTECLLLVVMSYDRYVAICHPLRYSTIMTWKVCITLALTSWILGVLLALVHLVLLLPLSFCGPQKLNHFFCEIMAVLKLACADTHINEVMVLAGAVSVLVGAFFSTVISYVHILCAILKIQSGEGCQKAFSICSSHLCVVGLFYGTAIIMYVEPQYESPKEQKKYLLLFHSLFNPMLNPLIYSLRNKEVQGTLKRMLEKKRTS
Description: as §1

[4] = target: T4, h2J3 (Homo sapiens, UniProt O76001); assay: cell-based; set-up: species or system Hana3A; cAMP-mediated luciferase reporter dose-response of odorant receptor orthologs and paralogs
T4 construct: gene OR2J3
T4 sequence (O76001 whole entry): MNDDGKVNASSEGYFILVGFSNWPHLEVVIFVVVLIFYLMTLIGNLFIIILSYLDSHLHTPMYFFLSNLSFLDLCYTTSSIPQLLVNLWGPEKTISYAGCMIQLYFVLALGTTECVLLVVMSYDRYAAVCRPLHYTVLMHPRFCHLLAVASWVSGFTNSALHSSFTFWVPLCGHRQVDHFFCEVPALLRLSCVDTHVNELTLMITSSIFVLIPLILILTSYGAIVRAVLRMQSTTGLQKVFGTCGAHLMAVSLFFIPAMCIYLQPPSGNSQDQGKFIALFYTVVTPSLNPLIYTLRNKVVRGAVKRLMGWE
Description: as §1

[5] = target: T5, h10G3 (Homo sapiens, UniProt Q8NGC4); assay: cell-based; set-up: species or system Hana3A; cAMP-mediated luciferase reporter dose-response of odorant receptor orthologs and paralogs
T5 construct: gene OR10G3
T5 sequence (Q8NGC4 whole entry): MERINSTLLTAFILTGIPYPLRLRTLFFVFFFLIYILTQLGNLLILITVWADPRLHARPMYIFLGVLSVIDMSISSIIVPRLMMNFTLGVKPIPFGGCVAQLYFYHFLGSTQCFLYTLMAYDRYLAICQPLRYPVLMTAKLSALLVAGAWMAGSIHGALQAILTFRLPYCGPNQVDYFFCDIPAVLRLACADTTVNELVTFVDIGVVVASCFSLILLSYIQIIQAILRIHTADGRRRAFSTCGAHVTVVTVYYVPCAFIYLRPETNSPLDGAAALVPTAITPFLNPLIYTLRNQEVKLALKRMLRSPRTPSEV
Description: as §1

[6] = target: T6, chimp OR8K3 (Pan troglodytes, UniProt A0A2J8LC19); assay: cAMP-mediated CRE-luciferase reporter dose-response, Hana3A cells; format: cell-based; conditions: agonist; human RTP1S and M3 receptor co-expressed; odor 10 nM to 10 mM
T6 construct: gene LOC466557; full-length ORF from genomic DNA, N-terminal Rho-tag, Hana3A cells with human RTP1S
T6 sequence (A0A2J8LC19 1-312): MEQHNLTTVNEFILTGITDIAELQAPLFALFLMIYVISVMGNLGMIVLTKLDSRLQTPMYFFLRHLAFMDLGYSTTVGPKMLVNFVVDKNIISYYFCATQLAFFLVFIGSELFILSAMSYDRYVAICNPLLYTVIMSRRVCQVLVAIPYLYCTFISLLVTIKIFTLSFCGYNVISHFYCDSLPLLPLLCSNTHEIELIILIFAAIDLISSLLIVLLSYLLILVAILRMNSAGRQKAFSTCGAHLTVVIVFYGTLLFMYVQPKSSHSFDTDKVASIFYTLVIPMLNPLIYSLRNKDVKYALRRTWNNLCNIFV

[7] = target: T6, chimp OR8K3; assay: cell-based; set-up: species or system Hana3A; cAMP-mediated luciferase reporter dose-response of odorant receptor orthologs and paralogs
Description: as §1

[8] = target: T7, h56A5 (Homo sapiens, UniProt P0C7T3); assay: cell-based; set-up: species or system Hana3A; cAMP-mediated luciferase reporter dose-response of odorant receptor orthologs and paralogs
T7 construct: gene OR56A5
T7 sequence (P0C7T3 whole entry): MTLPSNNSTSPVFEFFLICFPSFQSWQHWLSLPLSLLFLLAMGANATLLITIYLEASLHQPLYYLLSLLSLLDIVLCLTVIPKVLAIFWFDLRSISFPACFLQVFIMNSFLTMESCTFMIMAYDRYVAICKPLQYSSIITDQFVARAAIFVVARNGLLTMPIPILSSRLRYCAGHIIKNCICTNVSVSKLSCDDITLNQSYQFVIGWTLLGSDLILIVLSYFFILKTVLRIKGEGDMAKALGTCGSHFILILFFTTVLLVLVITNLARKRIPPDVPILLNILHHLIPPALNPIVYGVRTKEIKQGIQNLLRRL
Description: as §1

[9] = target: T8, h56A4 (Homo sapiens, UniProt Q8NGH8); assay: cell-based; set-up: species or system Hana3A; cAMP-mediated luciferase reporter dose-response of odorant receptor orthologs and paralogs
T8 construct: gene OR56A4
Description: as §1

[10] = target: T9, h56A1 (Homo sapiens, UniProt Q8NGH5); assay: cell-based; set-up: species or system Hana3A; cAMP-mediated luciferase reporter dose-response of odorant receptor orthologs and paralogs
T9 construct: gene OR56A1
T9 sequence (Q8NGH5 whole entry): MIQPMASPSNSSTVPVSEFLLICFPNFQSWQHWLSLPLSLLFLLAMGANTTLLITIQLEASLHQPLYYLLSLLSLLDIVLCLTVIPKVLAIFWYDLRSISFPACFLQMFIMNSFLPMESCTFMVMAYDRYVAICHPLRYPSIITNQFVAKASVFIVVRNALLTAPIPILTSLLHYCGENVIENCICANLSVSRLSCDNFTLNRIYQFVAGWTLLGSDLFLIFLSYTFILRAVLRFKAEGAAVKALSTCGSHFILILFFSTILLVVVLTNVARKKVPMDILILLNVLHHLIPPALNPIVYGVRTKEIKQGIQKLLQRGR
Description: as §1

[11] = target: T10, MOR267-13 (Mus musculus, UniProt Q62007); assay: cell-based; set-up: species or system Hana3A; cAMP-mediated luciferase reporter assay of odorant receptor activation, dose-response, orthologs and paralogs; conditions: ortholog and paralog set
T10 construct: gene Or10j5
T10 sequence (Q62007 whole entry): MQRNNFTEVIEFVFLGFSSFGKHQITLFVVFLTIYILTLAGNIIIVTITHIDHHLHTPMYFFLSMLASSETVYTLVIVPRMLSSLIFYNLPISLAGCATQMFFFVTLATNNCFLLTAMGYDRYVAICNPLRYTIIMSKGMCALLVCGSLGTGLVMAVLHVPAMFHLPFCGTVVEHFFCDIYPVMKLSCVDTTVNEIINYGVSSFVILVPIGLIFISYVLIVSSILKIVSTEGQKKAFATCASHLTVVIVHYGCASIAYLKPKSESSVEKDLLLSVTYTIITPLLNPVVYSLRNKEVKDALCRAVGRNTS
Procedure: Figure 2 Response of OR orthologs to 42 chemically diverse odors. (A) Tuning curves of human, chimp and macaque OR2W1 orthologs tested against 42 odors using a cAMP-mediated luciferase assay. Odorants are ordered along the x-axis according to the response elicited from the human OR2W1, with the best ligands closer to the center. Y-axis represents the luciferase response to an odor at 100 µM (n = 3, ± S.E.). Negative values on the y-axis indicate the odor elicited an inhibitory response on OR signaling. See Figure S6 for additional tuning curves. (B) Response of chimp and macaque OR2W1 orthologs (variant responses) plotted against the human OR2W1 response using the data from (A). X-axis and y-axis are response in luciferase assay at 100 µM (n = 3, ± S.E.). The black line represents the unit-slope line. Odor abbreviations in Table S3. Figure 6 Dose-response curves of OR orthologs and paralogs to a given ligand. (A) OR5K1 orthologs and 5 K subfamily to eugenol methyl ether. (B) OR8D1 orthologs and 8D subfamily members to 4,5-dimethyl-3-hydroxy-2,5-dihydrofuran-2-one. […] X-axis is the concentration of a given odor in Log Molar. Y-axis is normalized response (n = 3, ± S.E.M.). Human (h), chimpanzee (c) and rhesus macaque (m), mouse receptors (m+number); para indicates a receptor that is a paralog to the human reference OR. Vector control is Rho-pCI. […]

[12] = target: T11, h10J5 (Homo sapiens, UniProt Q8NHC4); assay: cell-based; set-up: species or system Hana3A; cAMP-mediated luciferase reporter dose-response of odorant receptor orthologs and paralogs
T11 construct: gene OR10J5
T11 sequence (Q8NHC4 whole entry): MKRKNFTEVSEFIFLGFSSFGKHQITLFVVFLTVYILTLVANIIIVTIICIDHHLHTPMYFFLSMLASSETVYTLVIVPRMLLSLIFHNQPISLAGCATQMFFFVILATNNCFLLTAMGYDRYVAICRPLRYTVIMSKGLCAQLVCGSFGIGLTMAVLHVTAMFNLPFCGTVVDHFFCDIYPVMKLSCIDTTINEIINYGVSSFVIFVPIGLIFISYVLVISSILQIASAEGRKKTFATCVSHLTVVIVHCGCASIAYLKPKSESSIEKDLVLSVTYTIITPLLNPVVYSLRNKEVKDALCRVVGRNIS
Description: as §1

[13] = target: T12, h10J1 (Homo sapiens, UniProt P30954); assay: cell-based; set-up: species or system Hana3A; cAMP-mediated luciferase reporter dose-response of odorant receptor orthologs and paralogs
T12 construct: gene OR10J1
Description: as §1

[14] = target: T1, OR2J2 (human); assay: cAMP-mediated CRE-luciferase reporter dose-response, Hana3A cells; format: cell-based; conditions: agonist; human RTP1S and M3 receptor co-expressed; odor 10 nM to 10 mM
[15] = target: T13, chimp OR5K1 (Pan troglodytes, UniProt A0A2J8MY22); assay: as above; format: cell-based; conditions: agonist; human RTP1S and M3 receptor co-expressed; odor 10 nM to 10 mM
T13 construct: gene LOC470870; full-length ORF from genomic DNA, N-terminal Rho-tag, Hana3A cells with human RTP1S
T13 sequence (A0A2J8MY22 1-308): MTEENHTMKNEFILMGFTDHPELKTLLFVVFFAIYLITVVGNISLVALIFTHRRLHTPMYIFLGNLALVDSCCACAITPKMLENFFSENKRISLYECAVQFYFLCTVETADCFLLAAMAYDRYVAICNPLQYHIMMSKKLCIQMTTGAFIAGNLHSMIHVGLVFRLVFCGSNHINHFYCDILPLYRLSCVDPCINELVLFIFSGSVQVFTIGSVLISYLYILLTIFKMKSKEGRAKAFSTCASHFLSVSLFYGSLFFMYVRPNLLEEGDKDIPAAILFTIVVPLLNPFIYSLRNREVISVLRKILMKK

[16] = target: T14, mouse MOR256-17 (Mus musculus, UniProt P23275); assay: cell-based; set-up: species or system Hana3A; cAMP-mediated luciferase reporter assay of odorant receptor activation, dose-response, ortholog pairs; conditions: ortholog set
T14 construct: gene Or2c1
Procedure: (§2) Figure 2 Response of OR orthologs to 42 chemically diverse odors. (A) Tuning curves of human, chimp and macaque OR2W1 orthologs tested against 42 odors using a cAMP-mediated luciferase assay. Odorants are ordered along the x-axis according to the response elicited from the human OR2W1, with the best ligands closer to the center. Y-axis represents the luciferase response to an odor at 100 µM (n = 3, ± S.E.). Negative values on the y-axis indicate the odor elicited an inhibitory response on OR signaling. See Figure S6 for additional tuning curves. (B) Response of chimp and macaque OR2W1 orthologs (variant responses) plotted against the human OR2W1 response using the data from (A). X-axis and y-axis are response in luciferase assay at 100 µM (n = 3, ± S.E.). The black line represents the unit-slope line. Odor abbreviations in Table S3. We next wanted to examine the functional changes in sensitivity of orthologs to individual ligands by testing each ortholog across a range of concentrations. We selected a single odor for a given OR to construct a representative dose-response curve, fit the data to a sigmoid curve, and then compared the response of the human allele against the primate orthologs and the mouse allele with the rat ortholog using an extra sum of squares test. […]

[17] = target: T15, h2B11 (Homo sapiens, UniProt Q5JQS5); assay: cell-based; set-up: species or system Hana3A; cAMP-mediated luciferase reporter dose-response of odorant receptor orthologs and paralogs
T15 construct: gene OR2B11
T15 sequence (Q5JQS5 whole entry): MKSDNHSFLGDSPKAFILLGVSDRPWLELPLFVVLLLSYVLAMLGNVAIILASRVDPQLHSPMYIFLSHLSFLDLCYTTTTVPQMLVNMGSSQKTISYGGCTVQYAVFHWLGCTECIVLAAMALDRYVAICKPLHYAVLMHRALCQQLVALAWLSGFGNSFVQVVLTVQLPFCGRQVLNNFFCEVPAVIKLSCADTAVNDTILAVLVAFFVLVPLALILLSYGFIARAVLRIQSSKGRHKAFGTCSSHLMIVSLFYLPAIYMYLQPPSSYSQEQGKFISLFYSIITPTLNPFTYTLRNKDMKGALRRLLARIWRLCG
Description: as §1

[18] = target: T16, h5P3 (Homo sapiens, UniProt Q8WZ94); assay: cell-based; set-up: species or system Hana3A; cAMP-mediated luciferase reporter dose-response of odorant receptor orthologs and paralogs
T16 construct: gene OR5P3
T16 sequence (Q8WZ94 whole entry): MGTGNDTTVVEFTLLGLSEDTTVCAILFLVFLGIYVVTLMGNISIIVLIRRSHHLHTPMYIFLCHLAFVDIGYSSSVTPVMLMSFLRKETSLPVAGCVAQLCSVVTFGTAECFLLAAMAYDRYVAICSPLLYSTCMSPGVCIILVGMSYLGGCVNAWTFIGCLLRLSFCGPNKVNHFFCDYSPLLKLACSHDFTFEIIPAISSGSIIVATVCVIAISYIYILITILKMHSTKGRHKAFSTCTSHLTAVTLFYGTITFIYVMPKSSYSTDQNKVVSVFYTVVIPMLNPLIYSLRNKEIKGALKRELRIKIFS
Description: as §1

[19] = target: T17, h51E1 (Homo sapiens, UniProt Q8TCB6); assay: cell-based; set-up: species or system Hana3A; cAMP-mediated luciferase reporter dose-response of odorant receptor orthologs and paralogs
T17 construct: gene OR51E1
Description: as §1

[20] = target: human OR51L1 (Homo sapiens, UniProt Q8NGJ5); assay: cell-based; set-up: species or system Hana3A; cAMP-mediated luciferase reporter assay of odorant receptor activation, dose-response, ortholog pairs; conditions: ortholog set
human OR51L1, sequence (Q8NGJ5 whole entry): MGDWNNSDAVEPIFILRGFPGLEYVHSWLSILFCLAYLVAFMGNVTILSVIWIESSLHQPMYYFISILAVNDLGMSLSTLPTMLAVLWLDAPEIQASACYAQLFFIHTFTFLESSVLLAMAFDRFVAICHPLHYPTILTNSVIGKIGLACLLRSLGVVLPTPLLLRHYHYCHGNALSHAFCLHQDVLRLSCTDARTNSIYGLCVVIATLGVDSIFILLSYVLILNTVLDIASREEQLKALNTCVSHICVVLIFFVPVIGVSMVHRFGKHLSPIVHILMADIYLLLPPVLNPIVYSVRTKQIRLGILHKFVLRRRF
Procedure: as §2

[21] = target: T18, h10G4 (Homo sapiens, UniProt Q8NGN3); assay: cell-based; set-up: species or system Hana3A; cAMP-mediated luciferase reporter dose-response of odorant receptor orthologs and paralogs
T18 construct: gene OR10G4
T18 sequence (Q8NGN3 whole entry): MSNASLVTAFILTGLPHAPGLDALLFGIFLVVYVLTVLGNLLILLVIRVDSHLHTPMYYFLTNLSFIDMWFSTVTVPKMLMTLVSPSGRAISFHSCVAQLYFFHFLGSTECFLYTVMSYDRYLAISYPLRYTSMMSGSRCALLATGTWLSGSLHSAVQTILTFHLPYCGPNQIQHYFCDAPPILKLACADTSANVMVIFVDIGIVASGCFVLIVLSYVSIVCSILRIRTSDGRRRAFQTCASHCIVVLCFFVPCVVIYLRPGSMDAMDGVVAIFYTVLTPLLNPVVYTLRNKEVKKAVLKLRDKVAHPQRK
Description: as §1

[22] = target: T19, h10G9 (Homo sapiens, UniProt Q8NGN4); assay: cell-based; set-up: species or system Hana3A; cAMP-mediated luciferase reporter dose-response of odorant receptor orthologs and paralogs
T19 construct: gene OR10G9
Description: as §1

[23] = target: T20, chimp OR8D1 (Pan troglodytes, UniProt A0A2J8N1S1); assay: cAMP-mediated CRE-luciferase reporter dose-response, Hana3A cells; format: cell-based; conditions: agonist; human RTP1S and M3 receptor co-expressed; odor 10 nM to 10 mM
T20 construct: gene LOC466828; full-length ORF from genomic DNA, N-terminal Rho-tag, Hana3A cells with human RTP1S
T20 sequence (A0A2J8N1S1 1-308): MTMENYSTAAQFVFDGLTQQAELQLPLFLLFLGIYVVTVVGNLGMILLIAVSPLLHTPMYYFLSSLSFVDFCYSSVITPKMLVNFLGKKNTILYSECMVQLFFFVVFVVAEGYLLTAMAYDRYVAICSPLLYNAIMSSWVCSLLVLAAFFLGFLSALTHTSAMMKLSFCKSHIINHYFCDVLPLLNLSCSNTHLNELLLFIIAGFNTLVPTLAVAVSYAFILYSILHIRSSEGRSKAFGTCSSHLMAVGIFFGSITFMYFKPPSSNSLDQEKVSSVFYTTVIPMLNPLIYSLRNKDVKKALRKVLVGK

[24] = target: T20, chimp OR8D1; assay: cell-based; set-up: species or system Hana3A; cAMP-mediated luciferase reporter dose-response of odorant receptor orthologs and paralogs
Description: as §1

CC(=O)OC/C=C(\C)CCC=C(C)C [geranyl acetate]
EC50 [1]: 42.7 µM | EC50 [2]: 479 µM | EC50 [3]: 9.55 µM | EC50 [4]: 162 µM

C=CCc1ccc(O)c(OC)c1 [eugenol]
EC50 [5]: 132 µM

CC(C)[C@H]1CC[C@H](C)C[C@@H]1O [(+)-menthol]
LogEC50 [6]: human and chimp OR8K3 orthologs are indistinguishable in their response to (+)-menthol | EC50 [7]: 9.12 µM

CCCCCCCCCC=O [decyl aldehyde]
EC50 [8]: 162 µM | EC50 [9]: 191 µM | EC50 [10]: 575 µM

CC(C)(O)CCCC1=CCC(C=O)CC1 (stereo not shown) [lyral]
EC50 [11]: 20.9 µM | EC50 [12]: 47.9 µM | EC50 [13]: 724 µM

CCCCCCCCO [1-octanol]
LogEC50 [14]: OR2J2 orthologs and 2J subfamily members to 1-octanol | EC50 [1]: 7.41 µM | EC50 [2]: 112 µM | EC50 [4]: 1.86 µM

C=CCc1ccc(OC)c(OC)c1 [eugenol methyl ether]
LogEC50 [15]: human OR5K1 is hyperfunctional to both chimp and macaque OR5K1 orthologs

O=c1ccc2ccccc2o1 [coumarin]
EC50 [16]: 44.7 µM | EC50 [17]: 72.4 µM | EC50 [18]: 2.95 µM

CCCC(=O)O [butyric acid]
EC50 [19]: 57.5 µM

C=CCOC(=O)Cc1ccccc1 [allyl phenyl acetate]
EC50 [20]: 9.12 µM

CCOc1cc(C=O)ccc1O [ethyl vanillin]
EC50 [21]: 40.7 µM | EC50 [22]: 537 µM | EC50 [5]: 41.7 µM

CC1=C(O)C(=O)OC1C (stereo not shown) [4,5-dimethyl-3-hydroxy-2,5-dihydrofuran-2-one]
LogEC50 [23]: Human OR8D1 is hyperfunctional to chimp and macaque OR8D1 orthologs | EC50 [24]: 18.6 µM
